Source: patent US20020081566A1, “HIV PROTEIN EPITOPES IMMUNOLOGICALLY HOMOLOGOUS TO HLA” (priority 1992, published 2002)

What was measured:
viral gp160 = molecular target: T1, viral gp160 (Human immunodeficiency virus type 1 group M subtype B, UniProt P03377); format: binding, HIV; settings: for binding to viral gp160 of AIDS serum antibodies pre-adsorbed on the peptide and eluted: sera from AIDS affected subjects, HIV western blot stripes, FIGS. 5 and 6; for reactivity of sera / antibodies raised against native gp160 in HIV positive subjects with the peptide region: sera from HIV positive subjects
T1 construct: purchased SORIN BIOMEDICA, Saluggia, Italy
Procedure: Sera from AIDS affected subjects are immunoadsorbed on columns of either S. MAP HIV, or MAP HLA 11 or MAP HLA 12 peptide coupled Sepharose (CNBR activated sepharose 4B from […]) and eluted. 1 ml of Sepharose/peptide equilibrated with 0.1 M TRIS HCl pH 8 and 0.5 M NaCl buffer is incubated for 16 hours with 100 μl of serum, washed with 0.1 M TRIS HCl ph 8 and 0.5 M NaCl. The bound antibodies are eluted with a buffer containing 0.2 M glycine pH 2 and 0.5 M NaCl. The eluted antibodies are assayed on HIV western blot commercial stripes (SORIN BIOMEDICA, Saluggia, Italy) and detected using the chemio-luminescence system from […]. […] Lane M is obtained from one of the “in toto” sera and used as control.
The same test is carried out using two sera of AIDS affected patients (FIG. 6), pre-adsorbed with the S. MAP HIV peptide (lanes A and B) or with the HIV 9 peptide (lanes C and D), and eluted.

[1] = molecular target: recombinant gp160 protein (Human immunodeficiency virus type 1 group M subtype B, UniProt P03377); settings: BALB/c female mice, subcutaneous, Freund's incomplete adjuvant, after third immunization; compared with control peptide serum (NMS); FIG. 1
Procedure: S.MAP HIV and S. MAP HLA peptides are injected subcutaneously to BALB/c female mice together with Freund's incomplete adjuvant. After the third immunization (for a total of three immunizations at three week intervals) mice sera are tested by an ELISA assay with the recombinant gp160 protein (from Transgene, Strasbourg) as follows: microtiter plastic wells (NUNC) are coated with 0.2 μg of protein resuspended in phospahte buffer pH 9, for 1.5 hours at 37° C., followed by washing with phosphate buffer pH 7, and by further incubating for 1 hour at 37° C. with bovine serum albumin (BSA, 1 mg/ml), to saturate the free sites of solid phase. After three washings, diluted sera in PBS, comprising BSA 1% w/v, are incubated with the coated wells for 1 hour at 37° C. After five washings in PBS, a rabbit anti-mouse Igs serum (SIGMA), 1/1000 diluted, is added. After 45 min. incubation at 37° C., wells are washed five times and 100 μl of chromogen substrate is added to each well (SORIN BIOMEDICA, Saluggia, Italy). The adsorbance is read with an automatic ELISA reader (BIORAD).

[2] = test system: syncytium between HIV infected 8E51 LAV cells and not infected CD4+ MOLT3 cells; experiment: Syncytium formation inhibition assay; format: cell-based; settings: mice sera; pre-immunization sera as specificity control; FIG. 9
Procedure: In order to check the ability to neutralize the viral infection of sera raised against the HLA homologous regions, mice sera are prepared by immunization with either S. MAP HLA or S. MAP HIV peptides. Sera are assayed for antibody ability to inhibit syncytium cells between HIV infected cells (8E51 LAV cells, AIDS Repository National Insitute of Health, Bethesda, Md. USA, “Journ. Exp. Medicine, 164, 280, 1986) and not infected, CD4+ cells (MOLT3 cells, AIDS Repository National Institute of Health, Bethesda, Md., USA). The syncytiums are counted at the optical microscope and the inhibition percentages are evaluated with reference to syncytiums in a control antibody-free cell culture. As specifity control, sera of mice before immunization are used.

T1 sequence (P03377 33-861): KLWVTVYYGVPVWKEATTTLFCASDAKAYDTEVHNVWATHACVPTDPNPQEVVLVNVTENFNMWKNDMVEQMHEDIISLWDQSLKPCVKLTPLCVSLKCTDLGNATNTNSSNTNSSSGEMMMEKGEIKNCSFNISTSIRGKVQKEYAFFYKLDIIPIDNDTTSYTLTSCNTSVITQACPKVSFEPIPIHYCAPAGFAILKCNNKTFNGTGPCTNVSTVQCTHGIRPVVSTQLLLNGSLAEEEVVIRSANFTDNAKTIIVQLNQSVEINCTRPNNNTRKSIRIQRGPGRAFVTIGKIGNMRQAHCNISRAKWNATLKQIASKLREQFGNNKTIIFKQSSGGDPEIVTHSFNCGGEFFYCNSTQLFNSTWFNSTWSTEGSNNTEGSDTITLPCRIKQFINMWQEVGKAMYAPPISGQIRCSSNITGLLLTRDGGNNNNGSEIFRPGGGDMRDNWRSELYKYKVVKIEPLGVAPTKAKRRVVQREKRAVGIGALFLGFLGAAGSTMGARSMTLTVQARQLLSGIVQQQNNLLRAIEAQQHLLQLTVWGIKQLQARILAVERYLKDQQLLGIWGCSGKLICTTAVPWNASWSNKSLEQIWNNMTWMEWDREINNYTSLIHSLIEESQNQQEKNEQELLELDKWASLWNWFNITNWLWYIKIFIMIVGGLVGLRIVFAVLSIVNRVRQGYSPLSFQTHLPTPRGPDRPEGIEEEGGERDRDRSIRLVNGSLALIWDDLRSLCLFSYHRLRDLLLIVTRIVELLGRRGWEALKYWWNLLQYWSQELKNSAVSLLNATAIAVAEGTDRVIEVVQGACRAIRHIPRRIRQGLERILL
Sequence of recombinant gp160 protein (P03377 33-861): as above

| Sequence | binding to viral gp160 of AIDS serum antibodies pre-adsorbed on the peptide and eluted (viral gp160) | reactivity of sera / antibodies raised against native gp160 in HIV positive subjects with the peptide region (viral gp160) | further results |
| --- | --- | --- | --- |
| IEPLGVAPT [MAP HIV 9] | do not show any reactivity | none of sera from HIV positive subjects are reactive | – |
| NLRKLRGYY [MAP HLA 12] | bind similarly to the viral gp160 | – | binding to a 45 KD protein (likely HLA heavy chains) of AIDS serum antibodies pre-adsorbed on the peptide (viral gp160; one serum, lane E, FIG. 5): also bind to a 45 KD protein |
| PTKAKRRVV [MAP HIV 12] | – | react | – |
| SELYKYKVVK [MAP HIV 11] | – | react | – |
| SELYKYKVVKIEPLGVAPTKAKRRVV [S. MAP HIV] | bind similarly to the viral gp160 | – | reaction of sera of peptide immunized mice with the recombinant gp160 protein [1]: react at significantly higher level; neutralization of viral fusion (syncytium inhibition) by antibodies of mice immunized with the peptide [2]: ability to neutralize the viral fusion |
| TQKYKRQAQ [MAP HLA 11] | bind similarly to the viral gp160 | – | – |
| TQKYKRQAQADRVNLRKLRGYY [S. MAP HLA, synthetic peptide from HLA class I heavy chain α-1 domain, allele Cw4] | – | – | reaction of sera of peptide immunized mice with the recombinant gp160 protein [1]: react specifically; neutralization of viral fusion (syncytium inhibition) by antibodies of mice immunized with the peptide [2]: same ability to neutralize the viral fusion |
